Here are results for 15 compounds from the SangsterLogP compilation.

In general, logP refers to a log measure of how a compound divides between an organic and an aqueous phase. Take `O=C(O)C=C1c2ccccc2N(c2ccccc2)C(=O)C1(O)c1ccccc1` (stereo not given): the logP was 2.83.
For `CCCCC1(O)C(=O)Nc2ccccc2C1=CC(=O)O` (stereo not given) the value was 2.18.
The compound `O=C(O)C=C1c2ccccc2N(c2ccccc2)C(=O)C1(O)Cc1ccccc1` (stereo not given) came in with a logP of 2.57.
The result for `CCCCC1(O)C(=O)N(C)c2ccccc2C1=CC(=O)OCC` (stereo not given) reads 4.21; that for `CCCCC1(O)C(=O)Nc2ccccc2C1=CC(=O)OCC` (stereo not given), 4.47.
The result for `Cc1ccc(Cl)c2c1NC(=O)C2OC(=O)Cc1ccccc1` (stereo not given) reads 3.19; that for `Cc1cc(C)c2c(c1)NC(=O)C2OC(=O)Cc1ccccc1` (stereo not given), 3.22.
For `CCOC(=O)C=C1c2ccccc2NC(=O)C1(O)Cc1ccccc1` (stereo not given) the value was 4.16; for `CCCCC1(O)C(=O)N(C)c2ccccc2C1=CC(=O)O` (stereo not given), 2.23; for `CCCCC1(O)C(=O)N(c2ccccc2)c2ccccc2C1=CC(=O)O` (stereo not given), 2.44.
In turn, `CCCCC(=O)OC1C(=O)Nc2cc(C)cc(C)c21` (stereo not given) showed a logP of 3.19.
The result for `CCOC(=O)C=C1c2ccccc2N(C)C(=O)C1(O)Cc1ccccc1` (stereo not given) reads 4.75.
For `CCCCC(=O)OC1C(=O)Nc2c(C)ccc(C)c21` (stereo not given) the value was 3.2; for `O=C(O)C=C1c2ccccc2NC(=O)C1(O)Cc1ccccc1` (stereo not given), 2.27; for `CN1C(=O)C(O)(Cc2ccccc2)C(=CC(=O)O)c2ccccc21` (stereo not given), 2.31.
